# Experiments:
# Human DPP-9 = Human DPP-9 (Homo sapiens, UniProt Q86TI2); experiment: In vitro assay for inhibition of DPP-9
# Protocol: (§7) Thus, isoindolines were synthesized as shown in Figure 1 and evaluated in vitro for their ability to inhibit human recombinant DPP-IV and were also screened for their selectivity over DPP-8/9 by a fluorescence assay using glycyl-proline 7-amino-4-methylcoumarin (H-Gly-Pro-AMC).
# (§8) Human DPP-8 and DPP-9 were expressed in baculovirus-infected Sf9 insect cells and purified using His-tagged protein purification resins. Inhibition of DPP-8 and -9 activities was determined as described above. 10 μL of appropriately diluted aqueous solutions of the test compounds was added to 96-well microtiter plates, followed by the addition of 50 μL of 1.0 mM H-Gly-Pro-AMC in buffer solution (50 mM HEPES, 0.1 mg/mL BSA, pH 8.0). The reaction was initiated by the addition of 40 μL of the enzyme solution diluted in the assay buffer.
# CYP2B = CYP2B enzyme induction in rat hepatocytes (7-pentoxyresorufin O-dealkylation); type: in vitro ADME; conditions: rat hepatocytes, 1, 10, 50 μM, 2 days
# Protocol: (§1) Enzyme induction was evaluated as follows: Hepatocytes isolated from male SD rats were maintained in culture for 1 day before treatment with the test compound or P-450 inducers. The cells were treated with the test compound (1, 10, 50 μM), β-naphthoflavone (10 μM, CYP1A inducer), phenobarbital (50 μM, CYP2B inducer), dexamethasone (10 μM, CYP3A inducer), or vehicle (0.1% DMSO final volume; used as negative control) for 2 days.
# (§2) Induction of CYP1A, CYP2B, and CYP3A enzymes was determined based on measurements of 7-ethoxyresorufin O-dealkylation, 7-pentoxyresorufin O-dealkylation, and testosterone 6β-hydroxylation, respectively. Assays were started by the addition of Krebs-Henseleit buffer containing 8 μM 7-ethoxyresorufin, 10 μM 7-pentoxyresorufin, or 250 μM testosterone at a volume of 100 μL per well. After incubation at 37°C for 30 min, aliquots were removed and analyzed by fluorometry (an excitation wavelength of 538 nm and an emission wavelength of 590 nm) or LC/MS/MS to determine the quantities of metabolites formed. Any test compound causing a dose-dependent change equal to or greater than 10% of the positive control (see formula below) was considered an enzyme inducer.
# (§3) % positive control=(activity of test - compound treated cells - activity of negative control)/(activity of positive control - activity of negative control)×100
# Human recombinant DPP-IV = Human recombinant DPP-IV (Homo sapiens, UniProt P27487); experiment: In vitro assay for DPP-IV inhibition (H-Gly-Pro-AMC fluorescence)
# Protocol: Inhibition of DPP-IV activity was determined by measuring the rate of hydrolysis of a surrogate substrate, H-Gly-Pro-7-amino-4-methylcoumarin (H-Gly-Pro-AMC). Human recombinant DPP-IV was purchased from R&D Systems, Minneapolis, MN. 10 μL of appropriately diluted solutions of the test compounds in water was added to 96-well microtiter plates, followed by the addition of 40 μL of DPP-IV diluted in assay buffer (25 mM HEPES, 140 mM NaC1, 0.1 mg/mL BSA, pH 7.8). After a 30-min preincubation at room temperature, the reaction was initiated by the addition of 50 μL of the assay buffer containing 0.2 mM H-Gly-Pro-AMC.
# Human DPP-8 = Human DPP-8 (Homo sapiens, UniProt Q6V1X1); experiment: In vitro assay for inhibition of DPP-8
# Protocol: as §7, §8
# CYP1A = CYP1A enzyme induction in rat hepatocytes (7-ethoxyresorufin O-dealkylation); type: in vitro ADME; conditions: rat hepatocytes, 1, 10, 50 μM, 2 days
# Protocol: as §1, §2, §3
# [1] = Metabolic stability in rat liver microsomes; type: in vitro ADME; conditions: 5 μM
# Protocol: (§4) The incubation mixture containing 0.25 mg of rat or human liver microsomes was preincubated with an NADPH-generating system for 5 min at 37°C. The reaction was started by the addition of 5 μL of a DMSO solution containing the test compound (5 μM). At t = 0 and at two additional time points between 0 and 30 min, aliquots (100 μL) were removed and added to termination mixtures (CH3CN). Proteins were sedimented by centrifugation and an aliquot of the supernatant was analyzed by LC/MS/MS.
# (§5) In determinations of the in vitrot1/2, the analyte/ISTD peak area ratio was converted to percentage of drug remaining by assigning a value of 100% to the peak area ratio at t = 0. The slope of the regression line fitted to the log (percentage remaining) versus incubation time relationship (-k) was used in the conversion of raw data to the in vitrot1/2 value. In vitro CLint was calculated using the following formula.
# (§6) CLint=0.693/Invitro t1/2×mL incubation/mg microsomes×45 mg microsomes/mg liver×[…] (b.w.)
# [2] = Metabolic stability in human liver microsomes; type: in vitro ADME; conditions: read-out: CL'int Human (converted)
# Protocol: as §4, §5, §6
# CYP3A = CYP3A enzyme induction in rat hepatocytes (testosterone 6β-hydroxylation); type: in vitro ADME; conditions: rat hepatocytes, 1, 10, 50 μM, 2 days
# Protocol: as §1, §2, §3
# Human DPP-9, sequence (Q86TI2 whole entry): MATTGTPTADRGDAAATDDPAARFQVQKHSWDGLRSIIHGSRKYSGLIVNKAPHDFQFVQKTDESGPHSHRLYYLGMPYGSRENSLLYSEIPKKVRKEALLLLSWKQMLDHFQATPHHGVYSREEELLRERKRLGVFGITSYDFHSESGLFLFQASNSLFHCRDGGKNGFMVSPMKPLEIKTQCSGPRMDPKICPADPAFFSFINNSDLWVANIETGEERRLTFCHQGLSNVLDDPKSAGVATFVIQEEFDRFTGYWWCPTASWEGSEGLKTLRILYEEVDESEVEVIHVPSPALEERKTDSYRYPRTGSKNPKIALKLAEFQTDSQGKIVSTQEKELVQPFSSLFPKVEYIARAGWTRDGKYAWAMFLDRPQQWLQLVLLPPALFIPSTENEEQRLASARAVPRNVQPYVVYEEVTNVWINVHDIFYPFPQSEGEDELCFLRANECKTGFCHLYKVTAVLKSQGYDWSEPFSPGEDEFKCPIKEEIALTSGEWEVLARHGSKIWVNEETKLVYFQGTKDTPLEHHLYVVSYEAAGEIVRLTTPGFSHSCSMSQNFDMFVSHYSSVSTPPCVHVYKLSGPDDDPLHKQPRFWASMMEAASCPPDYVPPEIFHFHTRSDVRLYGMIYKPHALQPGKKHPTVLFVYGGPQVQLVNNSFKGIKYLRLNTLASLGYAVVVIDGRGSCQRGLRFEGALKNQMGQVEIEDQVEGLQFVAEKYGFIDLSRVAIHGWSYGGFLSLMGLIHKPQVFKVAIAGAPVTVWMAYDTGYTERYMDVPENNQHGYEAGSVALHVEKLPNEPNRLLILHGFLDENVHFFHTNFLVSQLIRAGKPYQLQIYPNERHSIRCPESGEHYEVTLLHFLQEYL
# Human recombinant DPP-IV, sequence (P27487 whole entry): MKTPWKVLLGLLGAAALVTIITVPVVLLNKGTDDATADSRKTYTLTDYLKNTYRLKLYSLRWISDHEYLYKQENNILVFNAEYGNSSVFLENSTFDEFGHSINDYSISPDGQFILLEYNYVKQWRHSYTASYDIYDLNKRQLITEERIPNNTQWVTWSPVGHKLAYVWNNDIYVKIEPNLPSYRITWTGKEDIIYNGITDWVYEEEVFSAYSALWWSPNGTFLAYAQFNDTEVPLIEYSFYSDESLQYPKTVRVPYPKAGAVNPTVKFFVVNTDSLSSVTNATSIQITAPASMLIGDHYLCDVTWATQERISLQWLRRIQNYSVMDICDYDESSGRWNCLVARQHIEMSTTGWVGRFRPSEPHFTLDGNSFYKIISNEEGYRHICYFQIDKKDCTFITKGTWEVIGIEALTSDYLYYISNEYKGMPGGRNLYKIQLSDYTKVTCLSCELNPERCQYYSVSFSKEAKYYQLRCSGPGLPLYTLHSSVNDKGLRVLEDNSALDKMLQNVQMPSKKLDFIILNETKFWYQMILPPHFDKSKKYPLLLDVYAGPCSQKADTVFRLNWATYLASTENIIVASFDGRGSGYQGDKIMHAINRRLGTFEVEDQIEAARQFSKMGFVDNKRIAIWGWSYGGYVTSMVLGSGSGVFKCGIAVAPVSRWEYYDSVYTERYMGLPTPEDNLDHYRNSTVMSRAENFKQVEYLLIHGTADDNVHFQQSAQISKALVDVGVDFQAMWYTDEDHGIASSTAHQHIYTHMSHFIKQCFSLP
# Human DPP-8, sequence (Q6V1X1 whole entry): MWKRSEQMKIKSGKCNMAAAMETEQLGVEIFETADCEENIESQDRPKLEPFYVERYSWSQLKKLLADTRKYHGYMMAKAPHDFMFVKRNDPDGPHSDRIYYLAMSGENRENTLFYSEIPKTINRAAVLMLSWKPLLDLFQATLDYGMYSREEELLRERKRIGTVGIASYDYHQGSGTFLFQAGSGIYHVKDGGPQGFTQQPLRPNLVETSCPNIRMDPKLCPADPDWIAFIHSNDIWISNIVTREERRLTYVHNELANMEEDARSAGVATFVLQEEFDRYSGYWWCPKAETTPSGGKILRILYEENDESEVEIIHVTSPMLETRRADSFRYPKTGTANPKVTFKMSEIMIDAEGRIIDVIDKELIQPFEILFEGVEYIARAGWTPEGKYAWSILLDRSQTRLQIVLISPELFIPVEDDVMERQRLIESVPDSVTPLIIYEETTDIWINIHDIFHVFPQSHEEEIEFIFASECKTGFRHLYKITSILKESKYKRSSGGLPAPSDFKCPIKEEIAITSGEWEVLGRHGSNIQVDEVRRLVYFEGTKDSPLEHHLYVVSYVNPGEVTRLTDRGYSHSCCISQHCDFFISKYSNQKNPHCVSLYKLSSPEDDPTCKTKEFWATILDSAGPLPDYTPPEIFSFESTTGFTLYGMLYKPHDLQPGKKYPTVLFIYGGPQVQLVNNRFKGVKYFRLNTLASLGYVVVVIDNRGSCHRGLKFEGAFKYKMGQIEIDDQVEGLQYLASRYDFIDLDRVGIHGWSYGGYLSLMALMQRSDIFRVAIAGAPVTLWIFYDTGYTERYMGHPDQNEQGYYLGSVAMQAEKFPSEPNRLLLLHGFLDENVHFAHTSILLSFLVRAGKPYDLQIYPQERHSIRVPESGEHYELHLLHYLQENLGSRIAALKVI
SMILES,IC50 (Human DPP-9),IC50 (Human recombinant DPP-IV),IC50 (Human DPP-8),CL'int Rat [1],CLint scaled at 5 μM [2],Enzyme induction (rat) CYP2B (CYP2B),Enzyme induction (rat) CYP1A (CYP1A),Enzyme induction (rat) CYP3A (CYP3A)
"Cc1cccc2c1CN(C(=O)CC(C)(C)NCC(=O)N1CCC[C@H]1C#N)C2 [Compound 4h, (S)-1-(2-(2-Methyl-4-(4-methylisoindolin-2-yl)-4-oxobutan-2-ylamino)acetyl)pyrrolidine-2-carbonitrile]",> 100 µM,0.004 µM,> 100 µM,,,+ (Any test compound causing a dose-dependent change equal to or greater than 10% of the positive control (see formula below) was considered an enzyme inducer),,
"CC(C)(CC(=O)N1Cc2cccc(F)c2C1)NCC(=O)N1CCC[C@H]1C#N [Compound 4g, (S)-1-(2-(4-(4-Fluoroisoindolin-2-yl)-2-methyl-4-oxobutan-2-ylamino)acetyl)pyrrolidine-2-carbonitrile]",> 100 µM,0.0026 µM,> 100 µM,,,+ (Any test compound causing a dose-dependent change equal to or greater than 10% of the positive control (see formula below) was considered an enzyme inducer),,
"COc1cc(C)cc2c1CN(C(=O)CC(C)(C)NCC(=O)N1CCC[C@H]1C#N)C2 [Compound 4k, (S)-1-(2-(4-(4-Methoxy-6-methylisoindolin-2-yl)-2-methyl-4-oxobutan-2-ylamino)acetyl)pyrrolidine-2-carbonitrile]",> 100 µM,0.016 µM,> 100 µM,,,+ (Any test compound causing a dose-dependent change equal to or greater than 10% of the positive control (see formula below) was considered an enzyme inducer),,
"CC(C)(CC(=O)N1Cc2ccc(Br)cc2C1)NCC(=O)N1CCC[C@H]1C#N [Compound 4d, (S)-1-(2-(4-(5-Bromoisoindolin-2-yl)-2-methyl-4-oxobutan-2-ylamino)acetyl)pyrrolidine-2-carbonitrile]",> 100 µM,0.003 µM,36 µM,,,+ (Any test compound causing a dose-dependent change equal to or greater than 10% of the positive control (see formula below) was considered an enzyme inducer),,
"CC(C)(CC(=O)N1Cc2ccc(F)cc2C1)NCC(=O)N1CCC[C@H]1C#N [Compound 4c, (S)-1-(2-(4-(5-Fluoroisoindolin-2-yl)-2-methyl-4-oxobutan-2-ylamino)acetyl)pyrrolidine-2-carbonitrile]",> 100 µM,0.0019 µM,> 100 µM,43.3 mL/min/kg,80 mL/min/kg,+ (Any test compound causing a dose-dependent change equal to or greater than 10% of the positive control (see formula below) was considered an enzyme inducer),,

# Now from value to compound, other results behind:
IC50 (Human DPP-9),IC50 (Human recombinant DPP-IV),IC50 (Human DPP-8),CL'int Rat [1],CLint scaled at 5 μM [2],SMILES,Enzyme induction (rat) CYP2B (CYP2B),Enzyme induction (rat) CYP1A (CYP1A),Enzyme induction (rat) CYP3A (CYP3A)
> 100 µM,0.0048 µM,44 µM,,,"CC(C)(CC(=O)N1Cc2ccc(Cl)cc2C1)NCC(=O)N1CCC[C@H]1C#N [Compound 4e, (S)-1-(2-(4-(5-Chloroisoindolin-2-yl)-2-methyl-4-oxobutan-2-ylamino)acetyl)pyrrolidine-2-carbonitrile]",+ (Any test compound causing a dose-dependent change equal to or greater than 10% of the positive control (see formula below) was considered an enzyme inducer),,
> 100 µM,0.0054 µM,> 100 µM,,,"CC(C)(CC(=O)N1Cc2ccc(C(F)(F)F)cc2C1)NCC(=O)N1CCC[C@H]1C#N [Compound 4f, (S)-1-(2-(2-Methyl-4-oxo-4-(5-(trifluoromethyl)isoindolin-2-yl)butan-2-ylamino)acetyl)pyrrolidine-2-carbonitrile]",+ (Any test compound causing a dose-dependent change equal to or greater than 10% of the positive control (see formula below) was considered an enzyme inducer),+ (Any test compound causing a dose-dependent change equal to or greater than 10% of the positive control (see formula below) was considered an enzyme inducer),
> 100 µM,0.0026 µM,> 100 µM,,,"CC(C)(CC(=O)N1Cc2c(Cl)ccc(Cl)c2C1)NCC(=O)N1CCC[C@H]1C#N [Compound 4i, (S)-1-(2-(4-(4,7-Dichloroisoindolin-2-yl)-2-methyl-4-oxobutan-2-ylamino)acetyl)pyrrolidine-2-carbonitrile]",,+ (Any test compound causing a dose-dependent change equal to or greater than 10% of the positive control (see formula below) was considered an enzyme inducer),
> 100 µM,,,21.7 mL/min/kg,3.33 mL/min/kg,"CC(C)(CC(=O)N1Cc2ccccc2C1)NCC(=O)N1CCC[C@H]1C#N [Compound 4a, (S)-1-(2-(4-(Isoindolin-2-yl)-2-methyl-4-oxobutan-2-ylamino)acetyl)pyrrolidine-2-carbonitrile]",+ (Any test compound causing a dose-dependent change equal to or greater than 10% of the positive control (see formula below) was considered an enzyme inducer),+ (Any test compound causing a dose-dependent change equal to or greater than 10% of the positive control (see formula below) was considered an enzyme inducer),+ (Any test compound causing a dose-dependent change equal to or greater than 10% of the positive control (see formula below) was considered an enzyme inducer)
74 µM,0.022 µM,> 100 µM,,,"CC(C)(CC(=O)N1Cc2cc(Cl)c(Cl)cc2C1)NCC(=O)N1CCC[C@H]1C#N [Compound 4j, (S)-1-(2-(4-(5,6-Dichloroisoindolin-2-yl)-2-methyl-4-oxobutan-2-ylamino)acetyl)pyrrolidine-2-carbonitrile]",+ (Any test compound causing a dose-dependent change equal to or greater than 10% of the positive control (see formula below) was considered an enzyme inducer),+ (Any test compound causing a dose-dependent change equal to or greater than 10% of the positive control (see formula below) was considered an enzyme inducer),
